Source: PubChem BioAssay AID252 (DTP/NCI, 2004)
Values joined by “and” are separate entries in the source; they are usually repeats but may differ in a detail not shown here. Equal entries are not always repeated. Toxic doses and inconclusive results are not listed. *1 amine or outer side, *2 acyl side, *3 side chain or, on linkers, in order; H or OH if unused. Where a SMILES comes first, the peptide text is derived from it. Bridges are numbered along the chain shown (N, C = ends). Roman numbers before positions name the chains, in order. [ ]: non-standard residue; d: D form. Actinocin(9to1) = Cc1c2oc3c(C)ccc(C(=O)[*:1])c3nc-2c(C(=O)[*:2])c(N)c1=O; aThr = C[C@H](O)[C@H](N)C(=O)O; NMeV = CN[C@H](C(=O)O)C(C)C; Sar = CNCC(=O)O

Test system: BDF1 mice, intracerebral L1210 leukemia, survival T/C
Assay: NCI In Vivo Anticancer Drug Screen. Data for tumor model L1210 Leukemia (intracerebral) in B6D2F1 (BDF1) mice
Settings: endpoint: mean survival time, higher = longer survival
How it was run: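 Tumour was transplanted, animals received compound or vehicle, then survival in each group was measured and treated divided by control.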

[1] = dose: 2.0 mg/kg/injection, schedule: Q01DX009 (ip), vehicle: saline
[2] = dose: 4.0 mg/kg/injection, schedule: Q01DX009 (ip), vehicle: saline

In the case of `Nc1n[nH]c(N)n1`, the T/C (dose: 100.0 mg/kg/injection, schedule: Q03HX024 (ip), vehicle: saline) is reported as 104 % of control and 97 % of control and 100 % of control, the T/C (dose: 150.0 mg/kg/injection, schedule: Q03HX024 (ip), vehicle: saline) is reported as 102 % of control and 104 % of control and 99 % of control and the T/C (dose: 225.0 mg/kg/injection, schedule: Q01DX Z (ip), vehicle: saline) is reported as 104 % of control. For the same compound, the T/C (dose: 225.0 mg/kg/injection, schedule: Q03HX024 (ip), vehicle: saline) was 102 % of control and 108 % of control and 110 % of control, the T/C (dose: 335.0 mg/kg/injection, schedule: Q03HX024 (ip), vehicle: saline) was 109 % of control and 119 % of control and 121 % of control and the T/C (dose: 375.0 mg/kg/injection, schedule: Q01DX Z (ip), vehicle: saline) was 108 % of control. The T/C (dose: 500.0 mg/kg/injection, schedule: Q03HX024 (ip), vehicle: saline) was 109 % of control and 122 % of control and the T/C (dose: 750.0 mg/kg/injection, schedule: Q01DX Z (ip), vehicle: saline) was 98 % of control.

For `CCOC1=C(N2CC2)C(=O)C(OCC)=C(N2CC2)C1=O`, the T/C (dose: 0.25 mg/kg/injection, schedule: Q01DX009 (ip), vehicle: saline) was 96 % of control, the T/C (dose: 0.5 mg/kg/injection, schedule: Q01DX009 (ip), vehicle: saline) was 109 % of control and 93 % of control and the T/C (dose: 1.0 mg/kg/injection, schedule: Q01DX009 (ip), vehicle: saline) was 108 % of control and 98 % of control. The T/C [1] was 112 % of control and the T/C [2] was 94 % of control.

In the case of `CN(Cc1cnc2nc(N[Si](C)(C)C)nc(N[Si](C)(C)C)c2n1)c1ccc(C(=O)NC(CCC(=O)O[Si](C)(C)C)C(=O)O[Si](C)(C)C)cc1` (centres undefined), the T/C (dose: 1.0 mg/kg/injection, schedule: Q01DX009 (ip), vehicle: Klucel (hydroxypropylcellulose) (HPC)) is reported as 118 % of control, the T/C [1] is reported as 173 % of control and the T/C (dose: 4.0 mg/kg/injection, schedule: Q01DX009 (ip), vehicle: Klucel (hydroxypropylcellulose) (HPC)) is reported as 110 % of control. For the same compound, the T/C [2] was 93 % of control.

In the case of `CN(C)NCCC#N`, the T/C (dose: 27.0 mg/kg/injection, schedule: Q01DX Z (ip), vehicle: saline) is reported as 105 % of control, the T/C (dose: 40.0 mg/kg/injection, schedule: Q01DX Z (ip), vehicle: saline) is reported as 110 % of control and the T/C (dose: 60.0 mg/kg/injection, schedule: Q01DX Z (ip), vehicle: saline) is reported as 108 % of control. The T/C (dose: 90.0 mg/kg/injection, schedule: Q01DX Z (ip), vehicle: saline) was 109 % of control.

With `CCCCCCCCSc1ncnc2c1ncn2CCCC` the T/C (dose: 125.0 mg/kg/injection, schedule: Q01DX001 (ip), vehicle: saline) was 106 % of control, the T/C (dose: 250.0 mg/kg/injection, schedule: Q01DX001 (ip), vehicle: saline) was 112 % of control and the T/C (dose: 500.0 mg/kg/injection, schedule: Q01DX001 (ip), vehicle: saline) was 106 % of control. For the same compound, the T/C (dose: 1000.0 mg/kg/injection, schedule: Q01DX001 (ip), vehicle: saline) was 101 % of control.

`Cc1c2oc3c(C)ccc(C(=O)N[C@@H]4C(=O)N[C@H](C(C)C)C(=O)N5CCC[C@H]5C(=O)N(C)CC(=O)N(C)[C@@H](C(C)C)C(=O)O[C@H]4C)c3nc-2c(C(=O)N[C@@H]2C(=O)N[C@H](C(C)C)C(=O)N3CCC[C@H]3C(=O)N(C)CC(=O)N(C)[C@@H](C(C)C)C(=O)O[C@H]2C)c(N)c1=O` (I: [aThr][dV]P[Sar][NMeV] / II: [aThr][dV]P[Sar][NMeV]; ester I:1-I:C, II:1-II:C; linker I:N-II:N via Actinocin(9to1)) was tested, and the T/C (dose: 0.11 mg/kg/injection, schedule: Q01DX001 (ip), vehicle: saline) was 97 % of control, the T/C (dose: 0.18 mg/kg/injection, schedule: Q01DX001 (ip), vehicle: saline) was 102 % of control and the T/C (dose: 0.27 mg/kg/injection, schedule: Q01DX001 (ip), vehicle: saline) was 102 % of control. For the same compound, the T/C (dose: 12.0 micrograms/kg/injection, schedule: Q01DX Z (ip), vehicle: saline) was 101 % of control, the T/C (dose: 25.0 micrograms/kg/injection, schedule: Q01DX Z (ip), vehicle: saline) was 104 % of control and the T/C (dose: 50.0 micrograms/kg/injection, schedule: Q01DX Z (ip), vehicle: saline) was 102 % of control. For the same compound, the T/C (dose: 100.0 micrograms/kg/injection, schedule: Q01DX Z (ip), vehicle: saline) was 101 % of control.

`C[n+]1ccc(Nc2ccc(NC(=O)c3ccc(Nc4cc[n+](C)c5ccc(N)cc45)cc3N)cc2)cc1` was tested, and the T/C (dose: 1.0 mg/kg/injection, schedule: Q01DX009 (ip), vehicle: water) was 93 % of control, the T/C (dose: 2.0 mg/kg/injection, schedule: Q01DX009 (ip), vehicle: water) was 97 % of control and the T/C (dose: 4.0 mg/kg/injection, schedule: Q01DX009 (ip), vehicle: water) was 104 % of control. The T/C (dose: 8.0 mg/kg/injection, schedule: Q01DX009 (ip), vehicle: water) was 112 % of control.

With `CCOC(=O)c1ccc(NC(=O)N(CCCl)N=O)cc1` the T/C (dose: 4.0 mg/kg/injection, schedule: Q01DX001 (ip), vehicle: carboxymethylcellulose (CMC)) was 108 % of control, the T/C (dose: 6.0 mg/kg/injection, schedule: Q01DX001 (ip), vehicle: carboxymethylcellulose (CMC)) was 107 % of control and the T/C (dose: 9.0 mg/kg/injection, schedule: Q01DX001 (ip), vehicle: carboxymethylcellulose (CMC)) was 108 % of control. For the same compound, the T/C (dose: 13.5 mg/kg/injection, schedule: Q01DX001 (ip), vehicle: carboxymethylcellulose (CMC)) was 113 % of control.

In the case of `CS(=O)(=O)CCN(N=O)C(=N)N[N+](=O)[O-]`, the T/C (dose: 12.0 mg/kg/injection, schedule: Q01DX Z (ip), vehicle: carboxymethylcellulose (CMC)) is reported as 97 % of control, the T/C (dose: 24.0 mg/kg/injection, schedule: Q01DX Z (ip), vehicle: carboxymethylcellulose (CMC)) is reported as 100 % of control and the T/C (dose: 48.0 mg/kg/injection, schedule: Q01DX Z (ip), vehicle: carboxymethylcellulose (CMC)) is reported as 109 % of control. For the same compound, the T/C (dose: 96.0 mg/kg/injection, schedule: Q01DX Z (ip), vehicle: carboxymethylcellulose (CMC)) was 90 % of control.

`NC(=O)N(CCCl)N=O` was tested, and the T/C (dose: 1.2 mg/kg/injection, schedule: Q01DX001 (ip), vehicle: saline) was 115 % of control, the T/C (dose: 1.8 mg/kg/injection, schedule: Q01DX001 (ip), vehicle: saline) was 112 % of control and the T/C (dose: 3.6 mg/kg/injection, schedule: Q01DX001 (ip), vehicle: saline) was 163 % of control. For the same compound, the T/C (dose: 5.0 mg/kg/injection, schedule: Q01DX001 (ip), vehicle: carboxymethylcellulose (CMC)) was 176 % of control and 187 % of control, the T/C (dose: 7.2 mg/kg/injection, schedule: Q01DX001 (ip), vehicle: saline) was 159 % of control and 229 % of control and the T/C (dose: 7.5 mg/kg/injection, schedule: Q01DX001 (ip), vehicle: carboxymethylcellulose (CMC)) was 108 % of control.

`O=C1C(N2CC2)=C(N2CC2)C(=O)C(N2CC2)=C1N1CC1` was tested, and the T/C (dose: 0.02 mg/kg/injection, schedule: Q01DX009 (ip), vehicle: saline) was 102 % of control, the T/C (dose: 0.04 mg/kg/injection, schedule: Q01DX009 (ip), vehicle: saline) was 120 % of control and the T/C (dose: 0.16 mg/kg/injection, schedule: Q01DX009 (ip), vehicle: saline) was 112 % of control.

In the case of `O=NN(CCF)C(=O)NC1CSCSC1`, the T/C (dose: 3.7 mg/kg/injection, schedule: Q01DX001 (ip), vehicle: other) is reported as 111 % of control, the T/C (dose: 7.0 mg/kg/injection, schedule: Q01DX001 (ip), vehicle: other) is reported as 120 % of control and 123 % of control and the T/C (dose: 15.0 mg/kg/injection, schedule: Q01DX001 (ip), vehicle: other) is reported as 163 % of control. The T/C (dose: 28.0 mg/kg/injection, schedule: Q01DX001 (ip), vehicle: other) was 176 % of control, the T/C (dose: 31.0 mg/kg/injection, schedule: Q01DX001 (ip), vehicle: other) was 177 % of control and 278 % of control and the T/C (dose: 41.0 mg/kg/injection, schedule: Q01DX001 (ip), vehicle: other) was 291 % of control. The T/C (dose: 62.0 mg/kg/injection, schedule: Q01DX001 (ip), vehicle: other) was 290 % of control and 337 % of control.

With `O=c1[nH]cc(N(CCCl)CCCl)c(=O)[nH]1` the T/C (dose: 0.75 mg/kg/injection, schedule: Q01DX015 (ip), vehicle: carboxymethylcellulose (CMC)) was 114 % of control, the T/C (dose: 1.1 mg/kg/injection, schedule: Q01DX015 (ip), vehicle: carboxymethylcellulose (CMC)) was 123 % of control and the T/C (dose: 1.5 mg/kg/injection, schedule: Q01DX001 (ip), vehicle: carboxymethylcellulose (CMC)) was 106 % of control. For the same compound, the T/C (dose: 2.4 mg/kg/injection, schedule: Q01DX001 (ip), vehicle: carboxymethylcellulose (CMC)) was 111 % of control and the T/C (dose: 3.6 mg/kg/injection, schedule: Q01DX001 (ip), vehicle: carboxymethylcellulose (CMC)) was 102 % of control.

For `NC(C/[N+]([O-])=N/O)C(=O)O` (centres undefined), the T/C (dose: 25.0 mg/kg/injection, schedule: Q01DX009 (ip), vehicle: other) was 96 % of control, the T/C (dose: 50.0 mg/kg/injection, schedule: Q01DX001 (ip), vehicle: other) was 97 % of control and the T/C (dose: 50.0 mg/kg/injection, schedule: Q01DX009 (ip), vehicle: other) was 98 % of control. The T/C (dose: 100.0 mg/kg/injection, schedule: Q01DX001 (ip), vehicle: other) was 98 % of control, the T/C (dose: 100.0 mg/kg/injection, schedule: Q01DX009 (ip), vehicle: other) was 91 % of control and the T/C (dose: 200.0 mg/kg/injection, schedule: Q01DX001 (ip), vehicle: other) was 101 % of control. For the same compound, the T/C (dose: 400.0 mg/kg/injection, schedule: Q01DX001 (ip), vehicle: other) was 106 % of control.

`NCCCCS(=O)(=O)Nc1ccc(Nc2c3ccccc3nc3cc([N+](=O)[O-])ccc23)cc1` was tested, and the T/C (dose: 25.0 mg/kg/injection, schedule: Q01DX009 (ip), vehicle: saline) was 97 % of control and the T/C (dose: 50.0 mg/kg/injection, schedule: Q01DX009 (ip), vehicle: saline) was 99 % of control.
